Patent US10982109B2, “Two-component printable conductive composition” (PRINTCB LTD., priority 2018, dated 2021)

Legend:
[1] = Viscosity of the mixed composition (Brookfield digital viscometer); type: physicochemical; details: for Viscosity of the mixed composition: acid replacing citric acid in activated flux of Example 1, relative scale; for Viscosity trend versus composition without stabilizing agent: time following mixing
[2] = Stability / pot life of the mixed composition held at room temperature; details: in fluxing component of the two-component composition
Description: The two components were mixed at a proportion of 3.6:1 (by weight). The mixed composition was held at room temperature and its viscosity was measured hourly by Brookfield digital viscometer. Following each viscosity measurement, a line was printed on a glass substrate, the line being 50 mm long, 2 mm wide, and 40 μm thick. The printed ink was then sintered in a forced-air oven at 150° C. and the resistance of the obtained printed line was measured.

SMILES	Viscosity of the mixed composition [1]	other results
CC(=O)O [Acetic, acetic acid]	5	
O=C(O)/C=C/C(=O)O [Fumaric, fumaric acid]	1	
O=C(O)/C=C\C(=O)O [Maleic, maleic acid]	5	
O=C(O)C(=O)O [Oxalic, Oxalic acid]	1	Viscosity behaviour at room temperature following mixing [1]: increased within a few minutes such that it was not suitable for printing
O=C(O)C(O)C(O)C(=O)O (stereo not shown) [Tartaric, tartaric acid]	5	
CCCCCCCCCCCCS [dodecanethiol]		Viscosity trend versus composition without stabilizing agent [1]: smaller viscosity increase
CCCCCCCCS [octanethiol]		Viscosity trend versus composition without stabilizing agent [1]: smaller viscosity increase; Effect of the stabilizing agent on pot life [2]: extend the pot life
NC(N)=S [thiourea]		Effect of the stabilizing agent on pot life [2]: extending the pot life
